Broadly, the MIC is the least concentration at which growth counts as inhibited. High values mean weaker potency, low ones greater potency.

Holding throughout (test): ≥ marks a high value that may be exact or a test limit, other limits are often not marked, values filed in µg/mL are converted to µM
Experiment [1] deals with Candida albicans ATCC 14053.
For experiment [2], the system named is Enterococcus faecalis ATCC 29212.
For experiment [3], the system named is Escherichia coli ATCC 25922.
Experiment [4] concerns Klebsiella pneumoniae ATCC 13883.
Experiment [5] deals with Pseudomonas aeruginosa ATCC 27853.
For experiment [6], the system named is Staphylococcus aureus ATCC 29213.
In experiment [7] the test system is Candida albicans NCPF 1467.
Experiment [8] concerns Escherichia coli NCTC 10418.
Experiment [9] concerns Staphylococcus aureus NCTC 10788.
Experiment [10] concerns Clavibacter michiganensis subsp. michiganensis DSM 46294.
Experiment [11] relates to Pectobacterium carotovorum subsp. carotovorum DSM 30168.
The subject of experiment [12] is Pseudomonas corrugata DSM 7228.
In experiment [13] the test system is Pseudomonas syringae pv. syringae DSM 10604.
The test system of experiment [14] is Pseudomonas syringae pv. tomato DC3000.
Experiment [15] has as its system Xanthomonas vesicatoria DSM 50861.
The subject of experiment [16] is Pseudomonas aeruginosa PAO1.
In experiment [17] the test system is Staphylococcus aureus USA 300.
The test system of experiment [18] is Acinetobacter baumannii ATCC 19606.
Experiment [19] relates to Candida albicans ATCC 90028.
The test system of experiment [20] is Cryptococcus neoformans ATCC 208821.
For experiment [21], the system named is Klebsiella pneumoniae ATCC 700603.
Experiment [22] relates to Staphylococcus aureus ATCC 43300.
Experiment [23] has as its system Escherichia coli K-12.
Experiment [24] concerns Enterococcus faecalis NCTC 12697.
Experiment [25] relates to Staphylococcus aureus NCTC 12493.

Values after ≈ are worked out from the molar mass of the structure shown.

For `CC[C@H](C)[C@H](NC(=O)[C@@H](NC(=O)[C@H](CC(N)=O)NC(=O)[C@H](CO)NC(=O)[C@H](CC(C)C)NC(=O)[C@@H](NC(=O)CN)C(C)C)C(C)C)C(=O)NCC(=O)N[C@@H](Cc1ccc(O)cc1)C(=O)N[C@@H](CC(C)C)C(=O)N[C@@H](CCCCN)C(=O)N[C@@H](CCCCN)C(=O)N[C@@H](CC(C)C)C(=O)NCC(=O)N[C@H](C(=O)NCC(=O)N[C@@H](C)C(=O)N[C@@H](CC(C)C)C(=O)N[C@@H](CC(N)=O)C(=O)N[C@@H](C)C(=O)N[C@H](C(=O)N[C@@H](CC(C)C)C(=O)N[C@@H](CCCCN)C(=O)N[C@@H](CCC(N)=O)C(N)=O)C(C)C)[C@@H](C)O` [GVLSNVIGYLKKLGTGALNAVLKQ], the MIC in [1] was ≥ 144 µM; in experiment [2], 72 µM (≈ 177 µg/mL); in experiment [3], 25.3 µM (≈ 62.2 µg/mL); in experiment [4], 25.3 µM (≈ 62.2 µg/mL); in [5] it was 144 µM (≈ 353 µg/mL); in experiment [6], 72 µM (≈ 177 µg/mL).

Turning to `CC[C@H](C)[C@H](NC(=O)[C@H](C)NC(=O)[C@H](Cc1cnc[nH]1)NC(=O)[C@@H]1CCCN1C(=O)[C@@H](NC(=O)[C@H](CC(C)C)NC(=O)[C@H](CO)NC(=O)[C@H](Cc1ccccc1)NC(=O)[C@H](CC(C)C)NC(=O)[C@@H](N)Cc1ccccc1)[C@@H](C)CC)C(=O)NCC(=O)NCC(=O)N[C@@H](CC(C)C)C(=O)N[C@H](C(=O)N[C@@H](CO)C(=O)N[C@@H](C)C(=O)N[C@@H](Cc1ccccc1)C(=O)N[C@@H](CCCCN)C(N)=O)[C@@H](C)CC` [FLFSLIPHAIGGLISAFK], the figures for the MIC in experiment [7], in experiment [8] and in [9] were ≥ 64 µM, ≥ 150 µM and 20 µM (≈ 38.6 µg/mL), respectively.

`CC[C@H](C)[C@H](NC(=O)[C@H](CC(C)C)NC(=O)[C@H](CCCN=C(N)N)NC(=O)[C@H](CCCCN)NC(=O)[C@@H](NC(=O)[C@@H](NC(=O)[C@H](CCCCN)NC(=O)[C@H](CCCCN)NC(=O)[C@H](CCCCN)NC(=O)[C@@H](N)CCCCN)[C@@H](C)CC)[C@@H](C)CC)C(N)=O` [KKKKIIKRLI]: the MIC in experiment [10] is 7.89 µM (≈ 9.99 µg/mL); in experiment [11] it was 7.89 µM (≈ 9.99 µg/mL); in experiment [12] it was 3.94 µM (≈ 5 µg/mL); in [13], 0.0789 µM (≈ 0.0999 µg/mL); in [14], 0.789 µM (≈ 0.999 µg/mL); in experiment [15], 7.89 µM (≈ 9.99 µg/mL).

With `CC[C@H](C)[C@H](NC(=O)CNC(=O)CNC(=O)[C@H](CC(C)C)NC(=O)[C@@H](N)Cc1ccccc1)C(=O)N[C@@H](CC(C)C)C(=O)N[C@@H](CC(N)=O)C(=O)N[C@H](C(=O)N[C@H](C(=O)N[C@H](C(=O)NCC(=O)N[C@@H](CC(C)C)C(=O)N[C@@H](CC(C)C)C(N)=O)[C@@H](C)O)[C@@H](C)CC)[C@@H](C)O` [FLGGILNTITGLL], the MIC is ≥ 200 µM in [7] and 30 µM (≈ 39.9 µg/mL) in experiment [9].

As for `CC(C)C[C@H](NC(=O)[C@H](CC(C)C)NC(=O)[C@H](CCCCN)NC(=O)CNC(=O)[C@H](C)NC(=O)[C@H](C)NC(=O)[C@H](CCCCN)NC(=O)[C@H](CC(C)C)NC(=O)[C@H](C)NC(=O)[C@H](CO)NC(=O)[C@H](CC(C)C)NC(=O)[C@H](CC(C)C)NC(=O)CN)C(N)=O` [GLLSALKAAGKLL], the MIC in experiment [3] was 12.5 µM (≈ 15.7 µg/mL); in experiment [16], > 25 µM; in experiment [17], 12.5 µM (≈ 15.7 µg/mL).

For the compound `CC[C@H](C)[C@H](NC(=O)[C@@H](NC(=O)[C@H](CCCCN)NC(=O)[C@H](CCCCN)NC(=O)[C@@H](NC(=O)[C@@H](NC(=O)[C@H](CCCCN)NC(=O)[C@H](CCCCN)NC(=O)[C@H](CCCCN)NC(=O)[C@H](CCCCN)NC(=O)[C@H](CCCCN)NC(=O)[C@@H](N)CCCCN)[C@@H](C)CC)[C@@H](C)CC)[C@@H](C)CC)C(N)=O` [KKKKKKIIKKII], the MIC is 6.68 µM (≈ 9.99 µg/mL) in [10]; 6.68 µM (≈ 9.99 µg/mL) in experiment [11]; 6.68 µM (≈ 9.99 µg/mL) in experiment [12]; 1.67 µM (≈ 2.5 µg/mL) in experiment [13]; 0.668 µM (≈ 0.999 µg/mL) in experiment [14]; 6.68 µM (≈ 9.99 µg/mL) in experiment [15].

`CC(C)C[C@H](NC(=O)CNC(=O)[C@H](CO)NC(=O)CNC(=O)[C@H](Cc1cnc[nH]1)NC(=O)[C@H](CCCN=C(N)N)NC(=O)CN)C(=O)NCC(=O)N[C@@H](Cc1cnc[nH]1)C(=O)N[C@@H](CO)C(=O)N[C@@H](CO)C(=O)N[C@@H](CO)C(=O)N[C@@H](Cc1cnc[nH]1)C(=O)NCC(=O)N[C@@H](CCC(N)=O)C(=O)N[C@@H](Cc1cnc[nH]1)C(=O)NCC(=O)N[C@@H](CO)C(=O)NCC(=O)N[C@@H](CO)C(=O)NCC(=O)N[C@@H](CCCN=C(N)N)C(=O)O` [GRHGSGLGHSSSHGQHGSGSGR]: the minimal inhibitory concentration (MIC) in experiment [18] is > 15.2 µM; in [19], 15.2 µM (≈ 32 µg/mL); in [20], 15.2 µM (≈ 32 µg/mL); in experiment [3], > 15.2 µM; in [21], > 15.2 µM; in experiment [5], > 15.2 µM. The minimal inhibitory concentration (MIC) in experiment [22] was > 15.2 µM.

Turning to `CC[C@H](C)[C@H](NC(=O)[C@H](C)NC(=O)[C@H](CCC(=O)O)NC(=O)[C@H](Cc1cnc[nH]1)NC(=O)[C@H](CC(C)C)NC(=O)CNC(=O)[C@H](CCC(N)=O)NC(=O)[C@H](Cc1ccccc1)NC(=O)[C@@H](NC(=O)[C@H](CCCCN)NC(=O)[C@H](CCCCN)NC(=O)[C@H](CC(C)C)NC(=O)[C@@H](NC(=O)[C@H](CC(N)=O)NC(=O)[C@H](CC(C)C)NC(=O)CN)[C@@H](C)O)C(C)C)C(=O)N[C@@H](CCCCN)C(=O)N[C@@H](CC(C)C)C(=O)N[C@H](C(=O)N[C@@H](CC(N)=O)C(=O)N[C@@H](CC(N)=O)C(=O)N[C@@H](Cc1cnc[nH]1)C(=O)N[C@H](C(=O)N[C@@H](CCC(N)=O)C(=O)O)C(C)C)[C@@H](C)CC` [GLNTLKKVFQGLHEAIKLINNHVQ], the MIC in experiment [23] and in experiment [17] was ≥ 100 µM throughout.

Consider `CC[C@H](C)[C@H](NC(=O)[C@H](CCCCN)NC(=O)[C@H](CCC(N)=O)NC(=O)[C@@H](NC(=O)[C@@H](NC(=O)[C@H](CCCN=C(N)N)NC(=O)[C@H](CCCCN)NC(=O)[C@H](Cc1ccccc1)NC(=O)CN)[C@@H](C)CC)C(C)C)C(=O)N[C@@H](CCCN=C(N)N)C(=O)N[C@@H](CC(=O)O)C(=O)N[C@@H](Cc1ccccc1)C(=O)N[C@@H](CC(C)C)C(=O)N[C@@H](CCCN=C(N)N)C(=O)N[C@@H](CC(N)=O)C(=O)N[C@@H](CC(C)C)C(=O)N[C@H](C(N)=O)C(C)C` [GFKRIVQKIRDFLRNLV], for which the MIC was determined as 4.4 µM (≈ 9.25 µg/mL) in [3], 3.1 µM (≈ 6.51 µg/mL) in experiment [4], 25 µM (≈ 52.5 µg/mL) in [16] and 2.2 µM (≈ 4.62 µg/mL) in [17].

Regarding `CC[C@H](C)[C@H](NC(=O)[C@@H]1CCCN1C(=O)[C@H](CC(C)C)NC(=O)[C@@H](N)Cc1ccccc1)C(=O)N[C@H](C(=O)N[C@@H](C)C(=O)N[C@@H](CCCCN)C(=O)N[C@@H](CC(C)C)C(=O)N[C@@H](CC(C)C)C(=O)N[C@@H](CO)C(=O)NCC(=O)N[C@@H](CC(C)C)C(=O)N[C@@H](CC(C)C)C(=O)NCC(=O)N[C@@H](CCCN=C(N)N)C(=O)N[C@@H](CCCCN)C(=O)N[C@@H](CCCCN)C(=O)N[C@@H](CCCN=C(N)N)C(=O)N[C@@H](CCCN=C(N)N)C(=O)N[C@@H](CCC(N)=O)C(=O)N[C@@H](CCCN=C(N)N)C(=O)N[C@@H](CCCN=C(N)N)C(=O)N[C@@H](CCCN=C(N)N)C(N)=O)C(C)C` [FLPIVAKLLSGLLGRKKRRQRRR], the minimal inhibitory concentration (MIC) was 1 µM (≈ 2.76 µg/mL) in [7]; 2 µM (≈ 5.52 µg/mL) in [24]; 2 µM (≈ 5.52 µg/mL) in experiment [8]; 2 µM (≈ 5.52 µg/mL) in experiment [5]; 1 µM (≈ 2.76 µg/mL) in [9]; 2 µM (≈ 5.52 µg/mL) in experiment [25].

(Values after DBAASP.)
